Results: ChEMBL document CHEMBL1201861, “Genomics of Drug Sensitity in Cancer screening data, Wellcome Trust Sanger Institute”

tested on: Ca-Ski; assay: cells; assay type: functional, cell-based; conditions: Homo sapiens;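 also: cell viability assay measuring inhibition of Ca-Ski cell growth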
Description: SANGER: Inhibition of human Ca-Ski cell growth in a cell viability assay.

SMILES | IC50
NC(=O)c1ccc(N(C(N)=O)c2c(F)cccc2F)nc1-c1ccc(F)cc1F [VX-702] | > 2000 nM

tested on: DOK; assay: cells; assay type: functional, cell-based; conditions: Homo sapiens;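 also: cell viability assay read-out, values reflect inhibition of cell growth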
Description: SANGER: Inhibition of human DOK cell growth in a cell viability assay.

SMILES | IC50
NC(=O)c1ccc(N(C(N)=O)c2c(F)cccc2F)nc1-c1ccc(F)cc1F [VX-702] | > 2000 nM

tested on: DU-145; assay: cells; assay type: functional, cell-based; conditions: Homo sapiens
Description: SANGER: Inhibition of human DU-145 cell growth in a cell viability assay.

SMILES | IC50
NC(=O)c1ccc(N(C(N)=O)c2c(F)cccc2F)nc1-c1ccc(F)cc1F [VX-702] | 146 nM

tested on: EC-GI-10; assay: cells; assay type: functional, cell-based, Homo sapiens; conditions: Homo sapiens, EC-GI-10
Description: SANGER: Inhibition of human EC-GI-10 cell growth in a cell viability assay.

SMILES | IC50
NC(=O)c1ccc(N(C(N)=O)c2c(F)cccc2F)nc1-c1ccc(F)cc1F [VX-702] | > 2000 nM

tested on: GP5d; assay: cells; assay type: functional, cell-based; conditions: Homo sapiens;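 also: growth inhibition of human GP5d cells, read out with a cell viability assay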
Description: SANGER: Inhibition of human GP5d cell growth in a cell viability assay.

SMILES | IC50
NC(=O)c1ccc(N(C(N)=O)c2c(F)cccc2F)nc1-c1ccc(F)cc1F [VX-702] | > 2000 nM

tested on: HCC1569; assay: cells; assay type: functional, cell-based; conditions: Homo sapiens;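 also: growth inhibition of human HCC1569 cells, read out with a cell viability assay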
Description: SANGER: Inhibition of human HCC1569 cell growth in a cell viability assay.

SMILES | IC50
NC(=O)c1ccc(N(C(N)=O)c2c(F)cccc2F)nc1-c1ccc(F)cc1F [VX-702] | > 2000 nM

tested on: HO-1-N-1; assay: cells; assay type: functional, cell-based; conditions: Homo sapiens;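 also: growth inhibition of human HO-1-N-1 cells, read out with a cell viability assay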
Description: SANGER: Inhibition of human HO-1-N-1 cell growth in a cell viability assay.

SMILES | IC50
NC(=O)c1ccc(N(C(N)=O)c2c(F)cccc2F)nc1-c1ccc(F)cc1F [VX-702] | > 2000 nM

tested on: HT1197; assay: cells; assay type: functional, cell-based, HT-1197; conditions: Homo sapiens
Description: SANGER: Inhibition of human HT-1197 cell growth in a cell viability assay.

SMILES | IC50
NC(=O)c1ccc(N(C(N)=O)c2c(F)cccc2F)nc1-c1ccc(F)cc1F [VX-702] | > 2000 nM

tested on: HuP-T4; assay: cells; assay type: functional, cell-based; conditions: Homo sapiens;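 also: cell viability assay measuring how much HuP-T4 cell growth is inhibited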
Description: SANGER: Inhibition of human HuP-T4 cell growth in a cell viability assay.

SMILES | IC50
NC(=O)c1ccc(N(C(N)=O)c2c(F)cccc2F)nc1-c1ccc(F)cc1F [VX-702] | > 2000 nM

tested on: IGR-1; assay: cells; assay type: functional, cell-based; conditions: Homo sapiens;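 also: growth inhibition of human IGR-1 cells, read out with a cell viability assay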
Description: SANGER: Inhibition of human IGR-1 cell growth in a cell viability assay.

SMILES | IC50
NC(=O)c1ccc(N(C(N)=O)c2c(F)cccc2F)nc1-c1ccc(F)cc1F [VX-702] | > 2000 nM

tested on: IGROV-1; assay: cells; assay type: functional, cell-based; conditions: Homo sapiens;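 also: reduction of IGROV-1 cell growth, read out with a viability assay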
Description: SANGER: Inhibition of human IGROV-1 cell growth in a cell viability assay.

SMILES | IC50
NC(=O)c1ccc(N(C(N)=O)c2c(F)cccc2F)nc1-c1ccc(F)cc1F [VX-702] | > 2000 nM

tested on: J82; assay: cells; assay type: functional, cell-based; conditions: Homo sapiens;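 also: growth inhibition of J82 cells, read out with a cell viability assay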
Description: SANGER: Inhibition of human J82 cell growth in a cell viability assay.

SMILES | IC50
NC(=O)c1ccc(N(C(N)=O)c2c(F)cccc2F)nc1-c1ccc(F)cc1F [VX-702] | > 2000 nM

tested on: KYSE-520 cell line; assay: cells; assay type: functional, cell-based; conditions: Homo sapiens;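 also: growth inhibition of human KYSE-520 cells, read out with a viability assay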
Description: SANGER: Inhibition of human KYSE-520 cell growth in a cell viability assay.

SMILES | IC50
NC(=O)c1ccc(N(C(N)=O)c2c(F)cccc2F)nc1-c1ccc(F)cc1F [VX-702] | > 2000 nM

tested on: LU-99A; assay: cells; assay type: functional, cell-based; conditions: Homo sapiens;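 also: growth inhibition of LU-99A cells, read out with a cell viability assay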
Description: SANGER: Inhibition of human LU-99A cell growth in a cell viability assay.

SMILES | IC50
NC(=O)c1ccc(N(C(N)=O)c2c(F)cccc2F)nc1-c1ccc(F)cc1F [VX-702] | > 2000 nM

tested on: M14; assay: cells; assay type: functional, cell-based; conditions: Homo sapiens;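 also: growth inhibition of M14 cells, read out with a cell viability assay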
Description: SANGER: Inhibition of human M14 cell growth in a cell viability assay.

SMILES | IC50
NC(=O)c1ccc(N(C(N)=O)c2c(F)cccc2F)nc1-c1ccc(F)cc1F [VX-702] | > 2000 nM

tested on: MDA-MB-231; assay: cells; assay type: functional, cell-based; conditions: Homo sapiens
Description: SANGER: Inhibition of human MDA-MB-231 cell growth in a cell viability assay.

SMILES | IC50
NC(=O)c1ccc(N(C(N)=O)c2c(F)cccc2F)nc1-c1ccc(F)cc1F [VX-702] | > 2000 nM

tested on: MEL-JUSO; assay: cells; assay type: functional, cell-based; conditions: Homo sapiens;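 also: growth inhibition of human MEL-JUSO cells, read out with a cell viability assay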
Description: SANGER: Inhibition of human MEL-JUSO cell growth in a cell viability assay.

SMILES | IC50
NC(=O)c1ccc(N(C(N)=O)c2c(F)cccc2F)nc1-c1ccc(F)cc1F [VX-702] | > 2000 nM

tested on: MFE-280; assay: cells; assay type: functional, cell-based; conditions: Homo sapiens;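 also: growth inhibition of MFE-280 cells, determined with a cell viability readout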
Description: SANGER: Inhibition of human MFE-280 cell growth in a cell viability assay.

SMILES | IC50
NC(=O)c1ccc(N(C(N)=O)c2c(F)cccc2F)nc1-c1ccc(F)cc1F [VX-702] | > 2000 nM

tested on: MOLT-13; assay: cells; assay type: functional, cell-based; conditions: Homo sapiens;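 also: IC50 for suppression of MOLT-13 cell growth, read out with a cell viability assay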
Description: SANGER: Inhibition of human MOLT-13 cell growth in a cell viability assay.

SMILES | IC50
NC(=O)c1ccc(N(C(N)=O)c2c(F)cccc2F)nc1-c1ccc(F)cc1F [VX-702] | 160 nM

tested on: NB14; assay: cells; assay type: functional, cell-based, Homo sapiens; conditions: Homo sapiens, NB14;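 also: growth inhibition of NB14 cells measured with a cell viability assay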
Description: SANGER: Inhibition of human NB14 cell growth in a cell viability assay.

SMILES | IC50
NC(=O)c1ccc(N(C(N)=O)c2c(F)cccc2F)nc1-c1ccc(F)cc1F [VX-702] | > 2000 nM

tested on: NCI-H1573; assay: cells; assay type: functional, cell-based; conditions: Homo sapiens;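 also: growth inhibition of NCI-H1573 cells, read out with a cell viability assay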
Description: SANGER: Inhibition of human NCI-H1573 cell growth in a cell viability assay.

SMILES | IC50
NC(=O)c1ccc(N(C(N)=O)c2c(F)cccc2F)nc1-c1ccc(F)cc1F [VX-702] | > 2000 nM

tested on: NCI-H1755; assay: cells; assay type: functional, cell-based; conditions: Homo sapiens;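 also: cell viability readout used to measure growth inhibition of NCI-H1755 cells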
Description: SANGER: Inhibition of human NCI-H1755 cell growth in a cell viability assay.

SMILES | IC50
NC(=O)c1ccc(N(C(N)=O)c2c(F)cccc2F)nc1-c1ccc(F)cc1F [VX-702] | > 2000 nM

tested on: NCI-H1993; assay: cells; assay type: functional, cell-based; conditions: Homo sapiens;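 also: growth inhibition of the cancer cell line, assessed with a cell viability assay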
Description: SANGER: Inhibition of human NCI-H1993 cell growth in a cell viability assay.

SMILES | IC50
NC(=O)c1ccc(N(C(N)=O)c2c(F)cccc2F)nc1-c1ccc(F)cc1F [VX-702] | > 2000 nM

tested on: NCI-H2087; assay: cells; assay type: functional, cell-based; conditions: Homo sapiens;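 also: growth inhibition determined with a cell viability readout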
Description: SANGER: Inhibition of human NCI-H2087 cell growth in a cell viability assay.

SMILES | IC50
NC(=O)c1ccc(N(C(N)=O)c2c(F)cccc2F)nc1-c1ccc(F)cc1F [VX-702] | > 2000 nM

tested on: NCI-H2342; assay: cells; assay type: functional, cell-based; conditions: Homo sapiens;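 also: growth inhibition of the cancer cell line, determined with a cell viability assay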
Description: SANGER: Inhibition of human NCI-H2342 cell growth in a cell viability assay.

SMILES | IC50
NC(=O)c1ccc(N(C(N)=O)c2c(F)cccc2F)nc1-c1ccc(F)cc1F [VX-702] | > 2000 nM

tested on: NCI-H292; assay: cells; assay type: functional, cell-based; conditions: Homo sapiens;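 also: growth inhibition of NCI-H292 cells, read out with a cell viability assay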
Description: SANGER: Inhibition of human NCI-H292 cell growth in a cell viability assay.

SMILES | IC50
NC(=O)c1ccc(N(C(N)=O)c2c(F)cccc2F)nc1-c1ccc(F)cc1F [VX-702] | > 2000 nM

tested on: NCI-H520; assay: cells; assay type: functional, cell-based; conditions: Homo sapiens;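 also: growth inhibition of NCI-H520 cells, measured by a cell viability assay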
Description: SANGER: Inhibition of human NCI-H520 cell growth in a cell viability assay.

SMILES | IC50
NC(=O)c1ccc(N(C(N)=O)c2c(F)cccc2F)nc1-c1ccc(F)cc1F [VX-702] | > 2000 nM

tested on: OAW-28; assay: cells; assay type: functional, cell-based; conditions: Homo sapiens;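 also: growth inhibition of OAW-28 cells, read out with a cell viability assay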
Description: SANGER: Inhibition of human OAW-28 cell growth in a cell viability assay.

SMILES | IC50
NC(=O)c1ccc(N(C(N)=O)c2c(F)cccc2F)nc1-c1ccc(F)cc1F [VX-702] | > 2000 nM

tested on: OVCAR-5; assay: cells; assay type: functional, cell-based; conditions: Homo sapiens;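 also: growth inhibition of human OVCAR-5 cells, read out with a cell viability assay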
Description: SANGER: Inhibition of human OVCAR-5 cell growth in a cell viability assay.

SMILES | IC50
NC(=O)c1ccc(N(C(N)=O)c2c(F)cccc2F)nc1-c1ccc(F)cc1F [VX-702] | > 2000 nM

tested on: RPMI-2650; assay: cells; assay type: functional, cell-based; conditions: Homo sapiens
Description: SANGER: Inhibition of human RPMI-2650 cell growth in a cell viability assay.

SMILES | IC50
NC(=O)c1ccc(N(C(N)=O)c2c(F)cccc2F)nc1-c1ccc(F)cc1F [VX-702] | > 2000 nM

tested on: RVH-421; assay: cells; assay type: functional, cell-based; conditions: Homo sapiens
Description: SANGER: Inhibition of human RVH-421 cell growth in a cell viability assay.

SMILES | IC50
NC(=O)c1ccc(N(C(N)=O)c2c(F)cccc2F)nc1-c1ccc(F)cc1F [VX-702] | > 2000 nM

tested on: S-117; assay: cells; assay type: functional, cell-based; conditions: Homo sapiens
Description: SANGER: Inhibition of human S-117 cell growth in a cell viability assay.

SMILES | IC50
NC(=O)c1ccc(N(C(N)=O)c2c(F)cccc2F)nc1-c1ccc(F)cc1F [VX-702] | > 2000 nM

tested on: SBC-5; assay: cells; assay type: functional, cell-based; conditions: Homo sapiens;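 also: cell viability assay read-out, IC50 is the concentration that inhibits growth of the cells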
Description: SANGER: Inhibition of human SBC-5 cell growth in a cell viability assay.

SMILES | IC50
NC(=O)c1ccc(N(C(N)=O)c2c(F)cccc2F)nc1-c1ccc(F)cc1F [VX-702] | > 2000 nM

tested on: SK-OV-3; assay: cells; assay type: functional, cell-based; conditions: Homo sapiens;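 also: growth inhibition of SK-OV-3 human cells, read out with a cell viability assay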
Description: SANGER: Inhibition of human SK-OV-3 cell growth in a cell viability assay.

SMILES | IC50
NC(=O)c1ccc(N(C(N)=O)c2c(F)cccc2F)nc1-c1ccc(F)cc1F [VX-702] | > 2000 nM

tested on: SNU-423; assay: cells; assay type: functional, cell-based; conditions: Homo sapiens
Description: SANGER: Inhibition of human SNU-423 cell growth in a cell viability assay.

SMILES | IC50
NC(=O)c1ccc(N(C(N)=O)c2c(F)cccc2F)nc1-c1ccc(F)cc1F [VX-702] | > 2000 nM

tested on: SW1088; assay: cells; assay type: functional, cell-based; conditions: Homo sapiens;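 also: growth inhibition of human SW1088 cells, read out by a cell viability assay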
Description: SANGER: Inhibition of human SW1088 cell growth in a cell viability assay.

SMILES | IC50
NC(=O)c1ccc(N(C(N)=O)c2c(F)cccc2F)nc1-c1ccc(F)cc1F [VX-702] | > 2000 nM

tested on: SW48; assay: cells; assay type: functional, cell-based; conditions: Homo sapiens;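 also: growth inhibition of SW48 cells, read out with a cell viability assay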
Description: SANGER: Inhibition of human SW48 cell growth in a cell viability assay.

SMILES | IC50
NC(=O)c1ccc(N(C(N)=O)c2c(F)cccc2F)nc1-c1ccc(F)cc1F [VX-702] | > 2000 nM

tested on: T47D; assay: cells; assay type: functional, cell-based; conditions: Homo sapiens;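 also: growth inhibition of human T47D cells, measured with a cell viability assay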
Description: SANGER: Inhibition of human T47D cell growth in a cell viability assay.

SMILES | IC50
NC(=O)c1ccc(N(C(N)=O)c2c(F)cccc2F)nc1-c1ccc(F)cc1F [VX-702] | > 2000 nM

tested on: CWR22R; assay: cells; assay type: functional, cell-based; conditions: Homo sapiens, 22Rv1;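 also: growth inhibition of 22Rv1 cells, read out with a cell viability assay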
Description: SANGER: Inhibition of human 22RV1 cell growth in a cell viability assay.

SMILES | IC50
NC(=O)c1ccc(N(C(N)=O)c2c(F)cccc2F)nc1-c1ccc(F)cc1F [VX-702] | > 2000 nM

tested on: 639-V; assay: cells; assay type: functional, cell-based; conditions: Homo sapiens;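 also: growth inhibition of 639-V cells, read out with a cell viability assay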
Description: SANGER: Inhibition of human 639-V cell growth in a cell viability assay.

SMILES | IC50
NC(=O)c1ccc(N(C(N)=O)c2c(F)cccc2F)nc1-c1ccc(F)cc1F [VX-702] | > 2000 nM

tested on: ASPC1; assay: cells; assay type: functional, cell-based; conditions: Homo sapiens;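 also: growth inhibition of AsPC-1 cells, read out with a cell viability assay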
Description: SANGER: Inhibition of human AsPC-1 cell growth in a cell viability assay.

SMILES | IC50
NC(=O)c1ccc(N(C(N)=O)c2c(F)cccc2F)nc1-c1ccc(F)cc1F [VX-702] | > 2000 nM

tested on: C32; assay: cells; assay type: functional, cell-based; conditions: Homo sapiens;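 also: cell viability assay, with IC50 reflecting inhibition of C32 cell growth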
Description: SANGER: Inhibition of human C32 cell growth in a cell viability assay.

SMILES | IC50
NC(=O)c1ccc(N(C(N)=O)c2c(F)cccc2F)nc1-c1ccc(F)cc1F [VX-702] | > 2000 nM

tested on: CAL-120; assay: cells; assay type: functional, cell-based; conditions: Homo sapiens;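 also: cell growth inhibition, read out as cell viability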
Description: SANGER: Inhibition of human CAL-120 cell growth in a cell viability assay.

SMILES | IC50
NC(=O)c1ccc(N(C(N)=O)c2c(F)cccc2F)nc1-c1ccc(F)cc1F [VX-702] | > 2000 nM

tested on: CAL-27; assay: cells; assay type: functional, cell-based; conditions: Homo sapiens;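 also: Viability-based readout, IC50 reflecting inhibition of CAL-27 cell growth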
Description: SANGER: Inhibition of human CAL-27 cell growth in a cell viability assay.

SMILES | IC50
NC(=O)c1ccc(N(C(N)=O)c2c(F)cccc2F)nc1-c1ccc(F)cc1F [VX-702] | > 2000 nM

tested on: CAL-62; assay: cells; assay type: functional, cell-based; conditions: Homo sapiens;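 also: growth inhibition of CAL-62 cells, read out with a cell viability assay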
Description: SANGER: Inhibition of human CAL-62 cell growth in a cell viability assay.

SMILES | IC50
NC(=O)c1ccc(N(C(N)=O)c2c(F)cccc2F)nc1-c1ccc(F)cc1F [VX-702] | > 2000 nM

tested on: UACC-62; assay: cells; assay type: functional, cell-based; conditions: Homo sapiens;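 also: growth inhibition of human UACC-62 cells, read out by a cell viability assay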
Description: SANGER: Inhibition of human UACC-62 cell growth in a cell viability assay.

SMILES | IC50
NC(=O)c1ccc(N(C(N)=O)c2c(F)cccc2F)nc1-c1ccc(F)cc1F [VX-702] | > 2000 nM

tested on: VMRC-RCZ; assay: cells; assay type: functional, cell-based; conditions: Homo sapiens;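 also: growth inhibition measured with a cell viability assay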
Description: SANGER: Inhibition of human VMRC-RCZ cell growth in a cell viability assay.

SMILES | IC50
NC(=O)c1ccc(N(C(N)=O)c2c(F)cccc2F)nc1-c1ccc(F)cc1F [VX-702] | > 2000 nM

tested on: CHL-1; assay: cells; assay type: functional, cell-based; conditions: Homo sapiens;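 also: cell growth inhibition, read out with a cell viability assay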
Description: SANGER: Inhibition of human CHL-1 cell growth in a cell viability assay.

SMILES | IC50
NC(=O)c1ccc(N(C(N)=O)c2c(F)cccc2F)nc1-c1ccc(F)cc1F [VX-702] | > 2000 nM
